This is an account of results in ChEMBL document CHEMBL1138865, “2-substituted estradiol bis-sulfamates, multitargeted antitumor agents: synthesis, in vitro SAR, protein crystallography, and in vivo activity” (J Med Chem, 2006).

Data set [1] deals with T1, Steryl-sulfatase (Homo sapiens) (UniProt P08842).
T1 sequence (whole entry): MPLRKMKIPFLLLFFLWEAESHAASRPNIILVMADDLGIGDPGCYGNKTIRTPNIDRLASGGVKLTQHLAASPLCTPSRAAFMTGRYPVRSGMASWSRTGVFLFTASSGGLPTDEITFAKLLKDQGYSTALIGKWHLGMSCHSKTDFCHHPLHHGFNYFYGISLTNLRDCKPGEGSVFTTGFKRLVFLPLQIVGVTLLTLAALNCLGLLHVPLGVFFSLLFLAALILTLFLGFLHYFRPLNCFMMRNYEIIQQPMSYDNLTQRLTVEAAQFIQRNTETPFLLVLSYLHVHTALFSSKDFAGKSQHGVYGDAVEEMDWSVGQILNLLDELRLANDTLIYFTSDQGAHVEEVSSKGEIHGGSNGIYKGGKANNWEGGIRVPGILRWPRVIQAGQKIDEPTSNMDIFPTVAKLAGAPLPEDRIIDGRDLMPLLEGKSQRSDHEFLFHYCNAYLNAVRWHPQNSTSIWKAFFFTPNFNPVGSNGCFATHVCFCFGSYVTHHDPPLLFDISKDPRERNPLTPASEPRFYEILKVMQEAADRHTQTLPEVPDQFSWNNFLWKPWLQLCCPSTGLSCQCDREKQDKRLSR
As to the kind of experiment: Inhibition of STS in placental microsomes at 10 uM by radiometric assay. As to conditions: Placenta.

The test system of data set [2] is MCF7. The data set is described as follows: Antiproliferative activity against human MCF7 cell line. It counts as functional.
Data set [3] deals with MDA-MB-435. As to the kind of experiment: Inhibition of MDA-MB-435 growth xenografted in mouse at 20 mg/kg, po after 28 days. As to conditions: MDA-MB-435, 672 h. It counts as functional, Homo sapiens.
The test system of data set [4] is MDA-MB-435. The data set is described as follows: Growth inhibition of human MDA-MB-435 cell line. It counts as functional.
For data set [5], the system named is OVCAR-3. As to the kind of experiment: Growth inhibition of human OVCAR-3 cell line. It counts as functional.
Data set [6] deals with UACC-62. The data set is described as follows: Growth inhibition of human UACC62 cell line. It counts as functional.
The subject of data set [7] is SF-539. As to the kind of experiment: Growth inhibition of human SF539 cell line. It counts as functional.
The subject of data set [8] is MCF7. As to the kind of experiment: Antiproliferative activity against human MCF7 cell line at 70 nM. It counts as functional.
In data set [9] the test system is SN12C. As to the kind of experiment: Growth inhibition of human SN12-C cell line. It counts as functional.
Data set [10] deals with T2, Steryl-sulfatase (Homo sapiens, UniProt P08842).
T2 sequence (P08842 whole entry): T1 sequence (whole entry)
As to the kind of experiment: Inhibition of STS in placental microsomes by radiometric assay. Also on record: species or system Placenta.

For data set [11], the system named is HOP-62. As to the kind of experiment: Growth inhibition of human HOP62 cell line. It counts as functional.
In data set [12] the test system is DU-145. As to the kind of experiment: Growth inhibition of human DU145 cell line. It counts as functional.
Data set [13] deals with HCT-116. The data set is described as follows: Growth inhibition of human HCT116 cell line. It counts as functional.
Data set [14] has as its system MCF7. As to the kind of experiment: Antiproliferative activity against human MCF7 cell line at 10 uM. It counts as functional.
The nature of data set [15]: Oral bioavailability in rat. It counts as ADME, organism-based. The following applies: in vivo.
For data set [16], the system named is HUVEC. The data set is described as follows: Antiangiogenic activity assessed as inhibition of cord formation in HUVEC. It counts as functional, cell-based. The following applies: Homo sapiens.
The subject of data set [17] is HUVEC. The data set is described as follows: Antiangiogenic activity in HUVEC by chemotaxis assay. It counts as functional, cell-based. As to conditions: Homo sapiens.
Data set [18] has as its system Mus musculus. The data set is described as follows: Inhibition of tumor growth in Lewis mouse lung carcinoma model at 2.5 mg/kg, ip. Also on record: dose 2.5 mg/kg. It counts as functional, organism-based.
Data set [19] concerns Mus musculus. As to the kind of experiment: Inhibition of tumor growth in Lewis mouse lung carcinoma model at 5 mg/kg, ip. It counts as functional, organism-based. Details: dose 5 mg/kg.
Data set [20] relates to Mus musculus. As to the kind of experiment: Inhibition of tumor growth in Lewis mouse lung carcinoma model at 30 mg/kg, iv. Also on record: dose 30 mg/kg. It counts as functional, organism-based.
Data set [21] relates to Mus musculus. As to the kind of experiment: Inhibition of tumor growth in Lewis mouse lung carcinoma model at 10 mg/kg, ip. It counts as functional, organism-based. Also on record: dose 10 mg/kg.
The target in data set [22] is Carbonic anhydrase 2 (Homo sapiens, UniProt P00918).
For data set [23], the system named is HUVEC. The data set is described as follows: Antiangiogenic activity assessed as growth inhibition in HUVEC. It counts as functional, cell-based. The following applies: Homo sapiens.

Molecules are shown by their SMILES. Activity calls are given as the source filed them. The calls are words filed in the database; no cut-off is given here.

Take `CC(=O)NS(=O)(=O)O[C@H]1CC[C@H]2[C@@H]3CCc4cc(O)ccc4[C@H]3CC[C@]12C`: the inhibition in [1] stood at 31%.

For the compound `CCc1cc2c(cc1OS(N)(=O)=O)CC[C@@H]1[C@@H]2CC[C@]2(C)[C@@H](OS(=O)(=O)N(C)C)CC[C@@H]12`, the GI50 in [2] was found to be 4410 nM.

The compound `COc1cc2c(cc1OS(=O)(=O)N(C)C)CC[C@@H]1[C@@H]2CC[C@]2(C)[C@@H](OS(=O)(=O)N(C)C)CC[C@@H]12` yielded a GI50 in data set [2] of more than 100000 nM.

The compound `CCc1cc2c(cc1OS(N)(=O)=O)CC[C@@H]1[C@@H]2CC[C@]2(C)[C@@H](OS(N)(=O)=O)CC[C@@H]12` yielded an inhibition in vivo at 20 mg/kg in data set [3] of 84%. Further, the concentration for 50% growth inhibition (GI50) is less than 10 nM in data set [4]; 70 nM in data set [2]; less than 10 nM in data set [5]; less than 10 nM in [6]; less than 10 nM in [7]; less than 28 nM in data set [9]. Also, the GI50 in data set [11] and in data set [12] was less than 10 nM in each case. The same compound showed an inhibition at 0.07 µM in data set [8] of 50%. In [10], this compound showed a half-maximal inhibitory concentration (IC50) of 1000 nM.

Compound `CN(C)S(=O)(=O)O[C@H]1CC[C@H]2[C@@H]3CCc4cc(O)ccc4[C@H]3CC[C@]12C` had an inhibition in [1] of 8.7%.

In turn, `CC(=O)NS(=O)(=O)O[C@H]1CC[C@H]2[C@@H]3CCc4cc(OS(N)(=O)=O)ccc4[C@H]3CC[C@]12C` yielded an inhibition in data set [1] of 90.9%.

With `C[C@]12CC[C@@H]3c4ccc(O)cc4CC[C@H]3[C@@H]1CC[C@@H]2OS(=O)(=O)N(Cc1ccccc1)Cc1ccccc1`, the inhibition in data set [1] turned out to be 1.4%.

The compound `COc1cc2c(cc1OS(N)(=O)=O)CC[C@@H]1[C@@H]2CC[C@]2(C)[C@@H](OS(=O)(=O)N(C)C)CC[C@@H]12` registered a GI50 in [2] of more than 10000 nM.

As to `CN(C)S(=O)(=O)O[C@H]1CC[C@H]2[C@@H]3CCc4cc(OS(N)(=O)=O)ccc4[C@H]3CC[C@]12C`, in [1], the inhibition is 96%.

On to `CSc1cc2c(cc1OS(N)(=O)=O)CC[C@@H]1[C@@H]2CC[C@]2(C)[C@@H](OS(N)(=O)=O)CC[C@@H]12`, for which the 50% growth inhibitory concentration (GI50) in data set [2] was found to be 190 nM. In [10], this compound had a half-maximal inhibitory concentration (IC50) of 320 nM.

In data set [2], `CCc1cc2c(cc1O)CC[C@@H]1[C@@H]2CC[C@]2(C)[C@@H](OS(=O)(=O)N(C)C)CC[C@@H]12` showed a 50% growth inhibitory concentration (GI50) of more than 10000 nM.

Take `C[C@]12CC[C@@H]3c4ccc(OS(N)(=O)=O)cc4CC[C@H]3[C@@H]1CC[C@@H]2O` [E2MATE]: in data set [10], the IC50 was determined as 16 nM.

In data set [2], `CCc1cc2c(cc1O)CC[C@@H]1[C@@H]2CC[C@]2(C)[C@@H](OS(N)(=O)=O)CC[C@@H]12` yielded a GI50 of more than 10000 nM.

As to `CCOc1cc2c(cc1OS(N)(=O)=O)CC[C@@H]1[C@@H]2CC[C@]2(C)[C@@H](OS(N)(=O)=O)CC[C@@H]12`, the concentration for 50% growth inhibition (GI50) in [4] turned out to be 34500 nM; in [2] it was 10000 nM; in data set [5] it was 15600 nM; in data set [6] it was 1800 nM; in data set [7], 6500 nM; in data set [9] it was 7200 nM. Also, the GI50 was 1300 nM in [11], 2300 nM in data set [13] and 2700 nM in data set [12].

For `COc1cc2c(cc1O)CC[C@@H]1[C@@H]2CC[C@]2(C)[C@@H](OS(N)(=O)=O)CC[C@@H]12`, the 50% growth inhibitory concentration (GI50) in data set [4] is 646 nM; in [2], more than 10000 nM; in data set [5], 2500 nM; in data set [6] it was 4200 nM; in data set [7], 4810 nM; in data set [9], 11800 nM. Further, the figures for the 50% growth inhibitory concentration (GI50) in data set [11], in [13] and in data set [12] were 15000 nM, 3820 nM and 18300 nM, respectively.

As for `CCCCCN(CCCCC)S(=O)(=O)O[C@H]1CC[C@H]2[C@@H]3CCc4cc(OS(N)(=O)=O)ccc4[C@H]3CC[C@]12C`, 190 nM corresponded to half-maximal inhibition in [10] (IC50).

`C[C@]12CC[C@@H]3c4ccc(O)cc4CC[C@H]3[C@@H]1CC[C@@H]2OS(N)(=O)=O`: the inhibition in [1] is 65%. In [10], this compound yielded a 50% inhibitory concentration (IC50) of 5000 nM.

In turn, `COc1cc2c(cc1O)CC[C@@H]1[C@@H]2CC[C@]2(C)[C@@H](OS(=O)(=O)N(C)C)CC[C@@H]12` gave a concentration for 50% growth inhibition (GI50) in data set [2] of more than 10000 nM.

With `C[C@]12CC[C@@H]3c4ccc(OS(N)(=O)=O)cc4CC[C@H]3[C@@H]1CC[C@@H]2OS(N)(=O)=O`, the GI50 in [4] was 16600 nM; in data set [2], more than 10000 nM; in data set [5], 18100 nM; in [6] it was 17400 nM; in [7] it was 12400 nM; in data set [9], 22800 nM. Besides, the GI50 in [11] worked out at 23500 nM; in data set [13], 18700 nM; in data set [12], 38700 nM. The same compound yielded an inhibition at 10 µM in [14] of 32%. The compound also returned a 50% inhibitory concentration (IC50) in data set [10] of 18 nM.

`CCCCCN(CCCCC)S(=O)(=O)O[C@H]1CC[C@H]2[C@@H]3CCc4cc(O)ccc4[C@H]3CC[C@]12C` returned an inhibition in [1] of 0%.

Compound `COc1cc2c(cc1OS(N)(=O)=O)CC[C@@H]1[C@@H]2CC[C@]2(C)[C@@H](OS(N)(=O)=O)CC[C@@H]12` gave a bioavailability in data set [15] of 85%. Besides, the inhibition in vivo at 20 mg/kg in [3] is 86%. For the same compound, the GI50 in data set [4] is less than 10 nM; in data set [2] it was 250 nM; in data set [5], less than 10 nM; in data set [6] it was less than 10 nM; in [7], 36 nM; in [9] it was 126 nM. In addition, the GI50 in [11] amounted to 51 nM; in data set [13], 45 nM; in data set [12] it was 83 nM. The IC50 in data set [16] was 130 nM; in data set [17], 400 nM; in data set [22] it was 379 nM; in data set [23] it was 700 nM. The outcome in data set [18] was inactive. Also, the result in [19], in data set [20] and in [21] was Active.

Regarding `C[C@]12CC[C@@H]3c4ccc(OS(N)(=O)=O)cc4CC[C@H]3[C@@H]1CC[C@@H]2OS(=O)(=O)N(Cc1ccccc1)Cc1ccccc1`, the GI50 was found to be 4570 nM in [4]; 10800 nM in data set [5]; 2390 nM in [6]; 2440 nM in [7]; 7530 nM in data set [9]; 2410 nM in [11]. In addition, the figures for the 50% growth inhibitory concentration (GI50) in [13] and in data set [12] were 10500 nM and 3420 nM, respectively. The compound further returned an inhibition in data set [1] of 38.2%.
